A short description of data set [1]: Drug excretion in Wistar rat urine at 750 mg/kg, po after 12 hrs by HPLC-UV analysis. It counts as ADME, organism-based. The arrangement: dose 750 mg/kg, route oral. The settings on record: in vivo.
Data set [2] is described as follows: Drug excretion in Wistar rat feces at 750 mg/kg, po after 12 hrs by HPLC-UV analysis. Format: ADME, organism-based. The arrangement: dose 750 mg/kg, route oral. The settings on record: in vivo.
A short description of data set [3]: Drug metabolism in Wistar rat urine/feces treated with 750 mg/kg, po of 3,5,7,4'-tetramethoxyflavone by LC-MS and LC-MS/MS analysis. The arrangement: dose 750 mg/kg, route oral. Conditions: in vivo; call rule not given here. It counts as ADME, organism-based.
The nature of data set [4]: Drug metabolism in Wistar rat assessed as excretion of 3,5-dihydroxy-7-methoxy-2-(4-methoxyphenyl)-4H-chromen-4-one in urine/feces at 750 mg/kg, po by LC-MS and LC-MS/MS analysis. Format: ADME, organism-based. The arrangement: dose 750 mg/kg, route oral. Conditions: in vivo.
Data set [5] can be described thus: Drug metabolism in Wistar rat assessed as excretion of 3,5-dihydroxy-2-(4-hydroxyphenyl)-7-methoxy-4H-chromen-4-one in feces at 750 mg/kg, po by LC-MS and LC-MS/MS analysis. Format: ADME, organism-based. Also noted: dose 750 mg/kg, route oral. The settings on record: in vivo.
The nature of data set [6]: Drug metabolism in Wistar rat assessed as excretion of 7-methoxy-2-(4-methoxyphenyl)-4-oxo-4H-chromen-5-yl hydrogen sulfate in urine at 750 mg/kg, po by LC-MS and LC-MS/MS analysis. It counts as ADME, organism-based. The arrangement: dose 750 mg/kg, route oral. The settings on record: in vivo.
A short description of data set [7]: Drug metabolism in Wistar rat assessed as excretion of 5-hydroxy-2-(4-methoxyphenyl)-4-oxo-4H-chromen-7-yl hydrogen sulfate in urine at 750 mg/kg, po by LC-MS and LC-MS/MS analysis. It counts as ADME, organism-based. The arrangement: dose 750 mg/kg, route oral. The settings on record: in vivo.
Data set [8] can be described thus: Drug metabolism in Wistar rat assessed as excretion of 5-hydroxy-2-(4-hydroxyphenyl)-7-methoxy-4H-chromen-4-one in urine/feces at 750 mg/kg, po by LC-MS and LC-MS/MS analysis. It counts as ADME, organism-based. The arrangement: dose 750 mg/kg, route oral. The settings on record: in vivo.
The nature of data set [9]: Drug excretion in Wistar rat urine at 750 mg/kg, po after 24 to 72 hrs by HPLC-UV analysis. It counts as ADME, organism-based. The arrangement: dose 750 mg/kg, route oral. Conditions: in vivo.
Data set [10] in a line: Drug excretion in Wistar rat feces at 750 mg/kg, po after 18 to 24 hrs by HPLC-UV analysis. Format: ADME, organism-based. The arrangement: dose 750 mg/kg, route oral. The settings on record: in vivo.
Data set [11] in a line: AUC in Wistar rat at 250 mg/kg, po by HPLC analysis. Conditions: plasma. Also noted: dose 250 mg/kg, route oral. Format: ADME, organism-based.
The nature of data set [12]: AUC in Wistar rat at 250 mg/kg, iv by HPLC analysis. Conditions: plasma. It counts as ADME, organism-based. Also noted: dose 250 mg/kg, route intravenous.
The nature of data set [13]: Half life in Wistar rat at 250 mg/kg, po by HPLC analysis. Format: ADME, organism-based. Also noted: dose 250 mg/kg, route oral. Conditions: in vivo.
The nature of data set [14]: Half life in Wistar rat at 250 mg/kg, iv by HPLC analysis. It counts as ADME, organism-based. Conditions: Wistar, in vivo. Also noted: dose 250 mg/kg, route intravenous.
Data set [15] can be described thus: Elimination rate constant in Wistar rat at 250 mg/kg, po by HPLC analysis. Conditions: in vivo, read-out: Ke (converted). The arrangement: dose 250 mg/kg, route oral. It counts as ADME, organism-based.
The nature of data set [16]: Elimination rate constant in Wistar rat at 250 mg/kg, iv by HPLC analysis. Also noted: dose 250 mg/kg, route intravenous. It counts as ADME, organism-based. The settings on record: Wistar, in vivo, read-out: Ke (converted).
A short description of data set [17]: Clearance in Wistar rat at 250 mg/kg, po by HPLC analysis. It counts as ADME, organism-based. Also noted: dose 250 mg/kg, route oral. The settings on record: in vivo.
Data set [18] can be described thus: Clearance in Wistar rat at 250 mg/kg, iv by HPLC analysis. The settings on record: in vivo. Format: ADME, organism-based. Also noted: dose 250 mg/kg, route intravenous.
Data set [19] in a line: Tmax in Wistar rat at 250 mg/kg, po by HPLC analysis. It counts as ADME, organism-based. The arrangement: dose 250 mg/kg, route oral. Conditions: in vivo.
The nature of data set [20]: Cmax in Wistar rat at 250 mg/kg, po by HPLC analysis. It counts as ADME, organism-based. Also noted: dose 250 mg/kg, route oral. The settings on record: in vivo.
In data set [21] the test system is Rattus norvegicus. The experiment in a line: Volume of distribution in Wistar rat at 250 mg/kg, po by HPLC analysis. Format: ADME, organism-based. Also noted: dose 250 mg/kg, route oral. Conditions: in vivo.
Data set [22] deals with Rattus norvegicus. The experiment in a line: Absorption rate constant in Wistar rat at 250 mg/kg, po by HPLC analysis. It counts as ADME, organism-based. The arrangement: dose 250 mg/kg, route oral. The settings on record: in vivo.
A short description of data set [23]: Oral bioavailability in Wistar rat at 250 mg/kg by HPLC analysis. Format: ADME, organism-based. Conditions: in vivo.
The next data set concerns Liver. Nature of the data set: AUC (0.083 to 4 hrs) in Wistar rat liver at 750 mg/kg, po by LC-MS/MS analysis. It counts as ADME, organism-based. Also noted: time 0.083-4 hr, dose 750 mg/kg, route oral. Conditions: in vivo.
The subject of another data set is Kidney. The experiment in a line: AUC (0.083 to 4 hrs) in Wistar rat kidney at 750 mg/kg, po by LC-MS/MS analysis. It counts as ADME, organism-based. The arrangement: time 0.083-4 hr, dose 750 mg/kg, route oral. Conditions: in vivo.
The next data set has as its system Lung. Nature of the data set: AUC (0.083 to 4 hrs) in Wistar rat lung at 750 mg/kg, po by LC-MS/MS analysis. It counts as ADME, organism-based. Also noted: time upper 4 hr, time lower 0.083 hr, dose 750 mg/kg, route oral. Conditions: in vivo.
The next data set has as its system Brain. Nature of the data set: AUC (0.083 to 4 hrs) in Wistar rat brain at 750 mg/kg, po by LC-MS/MS analysis. It counts as ADME, organism-based. The arrangement: time 0.083-4 hr, dose 750 mg/kg, route oral. The settings on record: in vivo.
Data set [24] in a line: Cmax in Wistar rat liver at 750 mg/kg, po by LC-MS/MS analysis. It counts as ADME, organism-based. Also noted: dose 750 mg/kg, route oral.
Data set [25] is described as follows: Cmax in Wistar rat kidney at 750 mg/kg, po by LC-MS/MS analysis. Also noted: dose 750 mg/kg, route oral. It counts as ADME, organism-based.
Data set [26] in a line: Cmax in Wistar rat lung at 750 mg/kg, po by LC-MS/MS analysis. Format: ADME, organism-based. The arrangement: dose 750 mg/kg, route oral.
Data set [27] can be described thus: Cmax in Wistar rat brain at 750 mg/kg, po by LC-MS/MS analysis. It counts as ADME, organism-based. Also noted: dose 750 mg/kg, route oral.
Data set [28] in a line: Cmax in Wistar rat testes at 750 mg/kg, po by LC-MS/MS analysis. It counts as ADME, organism-based, Testis. The arrangement: dose 750 mg/kg, route oral.
The nature of data set [29]: Tmax in Wistar rat liver at 750 mg/kg, po by LC-MS/MS analysis. It counts as ADME, organism-based. Also noted: dose 750 mg/kg, route oral.
The nature of data set [30]: Tmax in Wistar rat kidney at 750 mg/kg, po by LC-MS/MS analysis. Format: ADME, organism-based. The arrangement: dose 750 mg/kg, route oral.
Data set [31] is described as follows: Tmax in Wistar rat lung at 750 mg/kg, po by LC-MS/MS analysis. Format: ADME, organism-based. Also noted: dose 750 mg/kg, route oral.
Data set [32] is described as follows: Tmax in Wistar rat brain at 750 mg/kg, po by LC-MS/MS analysis. Format: ADME, organism-based. Also noted: dose 750 mg/kg, route oral.
Data set [33] can be described thus: Tmax in Wistar rat testes at 750 mg/kg, po by LC-MS/MS analysis. The arrangement: dose 750 mg/kg, route oral. Format: ADME, organism-based, Testis.
Data set [34] is described as follows: Drug excretion in Wistar rat urine at 750 mg/kg, po after up to 72 hrs by HPLC-UV analysis. It counts as ADME, organism-based. The arrangement: dose 750 mg/kg, route oral. Conditions: read-out: Drug excretion.
Data set [35] in a line: Drug excretion in Wistar rat feces at 750 mg/kg, po after up to 72 hrs by HPLC-UV analysis. The arrangement: dose 750 mg/kg, route oral. It counts as ADME, organism-based. Conditions: faeces, read-out: Drug excretion.
Data set [36] can be described thus: AUC (0.083 to 4 hrs) in Wistar rat testes at 750 mg/kg, po by LC-MS/MS analysis. Format: ADME, organism-based, Testis. The arrangement: time 0.083-4 hr, dose 750 mg/kg, route oral. The settings on record: in vivo.

As to `COc1cc(O)c2c(=O)c(OC)c(-c3ccc(OC)c(OC)c3)oc2c1` [RETUSIN], the Drug excretion entry in data set [1] and in [2] was “Active” throughout.

Take `COc1cc(O)c2c(=O)c(O)c(-c3ccc(O)cc3)oc2c1` [RHAMNOCITRIN]: in data set [3], the Drug metabolism entry is on record as “metabolite_detected”.

Consider `COc1cc(O)c2c(=O)cc(-c3ccccc3)oc2c1` [TECHTOCHRYSIN], for which the Drug excretion entry in [1] and in data set [2] was “Active” in each case.

As to `COc1ccc(-c2oc3cc(OC)cc(OC)c3c(=O)c2OC)cc1` [TETRAMETHYLKAEMPFEROL], the Drug metabolism result in data set [4] and in data set [5] was “metabolite_detected” throughout.

Take `COc1ccc(-c2cc(=O)c3c(OC)cc(OC)cc3o2)cc1` [TRIMETHYLAPIGENIN]: the Drug metabolism entry in data set [6], in data set [7] and in [8] was “metabolite_detected” each time. Further, the Drug excretion entry in data set [9], in data set [10], in data set [1] and in data set [2] was “Active” throughout. Moreover, the AUC in data set [11] stood at 6.96 µg·h/mL; in data set [12] it was 276 µg·h/mL; in the data set on Liver it was 7.83 µg·h/g; with Kidney it was 3.01 µg·h/g; with Lung, 1.88 µg·h/g; in the data set on Brain it was 2.5 µg·h/g. The compound also had an AUC in [36] of 1.96 µg·h/g. For the same compound, the half-life was 5.04 h in data set [13] and 4.19 h in data set [14]. Further, the k el was 4.17e-05 s⁻¹ in data set [15] and 8.89e-05 s⁻¹ in data set [16]. This compound showed an apparent clearance (CL/F) in data set [17] of 5.62 mL/min. Besides, in data set [18], the clearance is 0.105 mL/min. The Tmax was found to be 0.85 h in [19]; 2.64 h in [29]; 3.43 h in data set [30]; 1.76 h in data set [31]; 3.43 h in [32]; 3.14 h in data set [33]. Further, the Cmax in data set [20] amounted to 880 ng/mL; in data set [24], 3010 ng/g; in [25], 1640 ng/g; in [26] it was 1410 ng/g; in data set [27], 1430 ng/g; in [28], 1100 ng/g. In addition, the Vd in the data set with Rattus norvegicus [21] came out at 2385.1 mL. This compound also showed a ka in the data set with Rattus norvegicus [22] of 8.53 h⁻¹. For the same compound, the bioavailability in data set [23] came out at 1.75%. The dose excreted at 72 h in [34] amounted to 1.77%; in data set [35] it was 1.76%.

Source of the values: ChEMBL document CHEMBL3526121, “Pharmacokinetics, bioavailability, tissue distribution, excretion, and metabolite identification of methoxyflavones in Kaempferia parviflora extract in rats” (Drug Metab Dispos, 2012).
